Values of other authors, collected in patent US20110009340A1, “COMBINATION OF AN IRON CHELATOR AND AN IMMUNOSUPPRESSANT AND USE THEREOF” (NOVARTIS AG, priority 2008, published 2011).

CC(=O)N(O)CCCCCNC(=O)CCC(=O)N(O)CCCCCNC(=O)CCC(=O)N(O)CCCCCN.CS(=O)(=O)O [Deferoxamine mesylate USP, N-[5-[3-[(5-aminopentyl)hydroxycarbamoyl]propionamido]pentyl]-3-[[5-(N-hydroxyacetamido)pentyl]carbamoyl]propionohydroxamic acid monomethanesulfonate (salt)]
solubility in methanol (methanol): slightly soluble
solubility in water (water): freely soluble
